Measured values as given in PubChem BioAssay (NCI).
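GI50: concentration for 50% inhibition of growth. TGI is the concentration that stops growth completely.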

Tests used:
Experiment in all cases: NCI anticancer screen, dose series, 384-well format
[1] = system: SNB-19 CNS
[2] = system: U251 glioblastoma
[3] = system: SK-MEL-2 melanoma
[4] = system: HCT-15 colon
[5] = system: HCT-116 colon
[6] = system: PC-3 prostate
[7] = system: 786-0 renal
[8] = system: NCI-H522 lung
[9] = system: UO-31 renal
[10] = system: UACC-62 melanoma
[11] = system: MCF7 breast
[12] = system: HOP-62 NSCLC
[13] = system: SK-MEL-28 melanoma
[14] = system: A549 NSCLC
[15] = system: M14 melanoma
[16] = system: OVCAR-3 ovarian
[17] = system: SF-268 CNS
[18] = system: ACHN renal
[19] = system: CCRF-CEM leukemia
[20] = system: OVCAR-8 ovarian
[21] = system: HOP-92 NSCLC
[22] = system: NCI/ADR-RES ovarian
[23] = system: K-562 leukemia
[24] = system: SK-OV-3 ovarian
[25] = system: MDA-MB-468 breast
[26] = system: MALME-3M melanoma
[27] = system: MDA-MB-435 melanoma
[28] = system: SN12C renal
[29] = system: HS 578T breast
[30] = system: T-47D breast
[31] = system: HL-60(TB) leukemia
[32] = system: BT-549 breast
[33] = system: DU-145 prostate
[34] = system: NCI-H23 lung
[35] = system: OVCAR-5 ovarian
[36] = system: CAKI-1 renal
[37] = system: MOLT-4 leukemia
[38] = system: LOX IMVI melanoma
[39] = system: A498 renal
[40] = system: MDA-MB-231 breast

Nc1nc(F)nc2c1ncn2C1OC(COP(=O)(O)O)C(O)C1O (stereo not drawn) was tested, and the GI50 [1] was 20.6 µM, the GI50 [2] was 90.2 µM and the GI50 [3] was 51.7 µM. It also gave a TGI [3] of 84.5 µM, a GI50 [4] of 39.9 µM and a GI50 [5] of 19.3 µM. The GI50 [6] was 37.6 µM, the GI50 [7] was 33 µM and the GI50 [8] was 59.7 µM. It also gave a GI50 [9] of 30.6 µM, a GI50 [10] of 23.2 µM and a TGI [10] of 54.1 µM. For the same compound, the GI50 [11] was 41.2 µM, the GI50 [12] was 5.8 µM and the TGI [12] was 21.2 µM. For the same compound, the GI50 [13] was 7.83 µM, the GI50 [14] was 36.1 µM and the GI50 [15] was 8.5 µM. The TGI [15] was 37.3 µM, the GI50 [16] was 58.4 µM and the GI50 [17] was 48.3 µM. The GI50 [18] was 32.9 µM, the GI50 [19] was 1.91 µM and the TGI [19] was 3.57 µM. It also gave a GI50 [20] of 3.16 µM, a TGI [20] of 15.8 µM and a GI50 [21] of 30.9 µM. It also gave a GI50 [22] of 4.74 µM, a TGI [22] of 41.2 µM and a GI50 [23] of 58.4 µM. For the same compound, the GI50 [24] was 24 µM, the GI50 [25] was 71 µM and the GI50 [26] was 25.1 µM. For the same compound, the GI50 [27] was 49.9 µM, the GI50 [28] was 4.96 µM and the TGI [28] was 21.8 µM. The GI50 [29] was 55 µM, the GI50 [30] was 83 µM and the GI50 [31] was 3.71 µM. It also gave a TGI [31] of 11 µM, a GI50 [32] of 20 µM and a TGI [32] of 96.9 µM. The GI50 [33] was 21.6 µM, the TGI [33] was 93.8 µM and the GI50 [34] was 11.7 µM. For the same compound, the TGI [34] was 32.9 µM, the GI50 [35] was 57.5 µM and the GI50 [36] was 25.3 µM. The GI50 [37] was 1.53 µM, the TGI [37] was 2.89 µM and the GI50 [38] was 45.4 µM. For the same compound, the GI50 [39] was 31.2 µM and the GI50 [40] was 32.9 µM.
